# Read-outs that look alike come from different tables or passages of the source.
# How the values were obtained:
# Assay in all cases: Test C pre/postemergence
# Format in all cases: in vivo
# [1] = system: lambsquarters (Chenopodium album); conditions: Chenopodium album, pre-emergence, Preemergence, read-out: Plant response rating, Lambsquarters
# Method in brief: (§1)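 Greenhouse pot test: seeds treated preemergence, or plants at 2–18 cm (1- to 4-leaf stage) treated postemergence, with compound in non-phytotoxic solvent plus surfactant. Visual rating versus untreated controls after 12–14 days, scale 0 (no effect) to 100 (complete control); dash means not tested.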
# [2] = system: giant foxtail (Setaria faberii); conditions: Setaria faberi; for pest or weed control at 125 g/ha: 125 g ai/ha; for pest or weed control at 31 g/ha: 31 g ai/ha; for pest or weed control at 62 g/ha: 62 g ai/ha; for pest or weed control at 250 g/ha: 250 g ai/ha
# Method in brief: as §1
# corn (Zea mays) = conditions: Zea mays; for Corn plant response rating (crop injury, 0 = no effect, 100 = complete kill) at 31 g/ha: 31 g ai/ha; for Corn plant response rating (crop injury, 0 = no effect, 100 = complete kill) at 62 g/ha: 62 g ai/ha; for Corn plant response rating (crop injury, 0 = no effect, 100 = complete kill) at 125 g/ha: 125 g ai/ha
# Method in brief: as §1
# kochia (Kochia scoparia) = conditions: Bassia scoparia; for pest or weed control at 31 g/ha: 31 g ai/ha; for pest or weed control at 62 g/ha: 62 g ai/ha; for pest or weed control at 125 g/ha: 125 g ai/ha; for pest or weed control at 250 g/ha: 250 g ai/ha
# Method in brief: as §1
# soybean (Glycine max) = conditions: Glycine max; for plant injury at 31 g/ha: 31 g ai/ha; for plant injury at 62 g/ha: 62 g ai/ha; for plant injury at 125 g/ha: 125 g ai/ha; for plant injury at 250 g/ha: 250 g ai/ha
# Method in brief: as §1
# [3] = system: cocklebur (Xanthium strumarium); conditions: Xanthium strumarium; for pest or weed control at 31 g/ha: 31 g ai/ha; for pest or weed control at 62 g/ha: 62 g ai/ha; for pest or weed control at 125 g/ha: 125 g ai/ha
# Method in brief: as §1
# [4] = post-emergence, Postemergence, scale 0 to 100 (0 no effect, 100 complete control), read-out: Foxtail, Giant plant response rating
# [5] = pre-emergence, Preemergence, scale 0 to 100, 0 no effect, 100 complete control, read-out: Plant response rating, Foxtail, Giant
# [6] = pre-emergence, Preemergence, scale 0 to 100, read-out: Plant response rating, Foxtail, Giant
# [7] = post-emergence, Postemergence, scale 0 to 100 (0 no effect, 100 complete control), read-out: Corn plant response rating
# [8] = pre-emergence, Preemergence, scale 0 to 100, 0 no effect, 100 complete control, read-out: Plant response rating, Corn
# [9] = post-emergence, Postemergence, scale 0 to 100 (0 no effect, 100 complete control), read-out: Kochia plant response rating
# [10] = pre-emergence, Preemergence, scale 0 to 100, 0 no effect, 100 complete control, read-out: Plant response rating, Kochia
# [11] = pre-emergence, Preemergence, scale 0 to 100, read-out: Plant response rating, Kochia
# [12] = post-emergence, Postemergence, scale 0 to 100 (0 no effect, 100 complete control), read-out: Soybean plant response rating
# [13] = pre-emergence, Preemergence, scale 0 to 100, 0 no effect, 100 complete control, read-out: Plant response rating, Soybean
# [14] = pre-emergence, Preemergence, scale 0 to 100, read-out: Plant response rating, Soybean
# [15] = post-emergence, Postemergence, scale 0 to 100 (0 no effect, 100 complete control), read-out: Cocklebur plant response rating
# [16] = pre-emergence, Preemergence, scale 0 to 100, 0 no effect, 100 complete control, read-out: Plant response rating, Cocklebur
structure (smiles),measurement,setting,value
"CCOC(=O)c1nc(-c2ccc(Cl)cc2)nc(N)c1Cl [Compound 64, ethyl 6-amino-5-chloro-2-(4-chlorophenyl)-4-pyrimidinecarboxylate]",pest or weed control at 31 g/ha,"[1]; 31 g ai/ha, scale 0 to 100, 0 no effect, 100 complete control",70%
same,pest or weed control at 62 g/ha,"[1]; 62 g ai/ha, scale 0 to 100, 0 no effect, 100 complete control",95%
same,pest or weed control at 125 g/ha,"[1]; 125 g ai/ha, scale 0 to 100",95%
same,pest or weed control at 250 g/ha,"[1]; 250 g ai/ha, scale 0 to 100",100%
same,pest or weed control at 125 g/ha,[2]; [4],50%
same,pest or weed control at 31 g/ha,"[2]; post-emergence, Postemergence, read-out: Plant response rating (scale of 0 to 100), Foxtail, Giant",0%
same,pest or weed control at 62 g/ha,[2]; [4],20%
same,pest or weed control at 250 g/ha,"[2]; post-emergence, Postemergence, scale 0 to 100, read-out: Plant response rating, Foxtail, Giant",50%
same,pest or weed control at 31 g/ha,[2]; [5],0%
same,pest or weed control at 62 g/ha,[2]; [5],0%
same,pest or weed control at 125 g/ha,[2]; [6],0%
same,pest or weed control at 250 g/ha,[2]; [6],0%
same,"Corn plant response rating (crop injury, 0 = no effect, 100 = complete kill) at 31 g/ha","corn (Zea mays); post-emergence, Postemergence, read-out: Plant response rating (scale of 0 to 100), Corn",20%
same,"Corn plant response rating (crop injury, 0 = no effect, 100 = complete kill) at 62 g/ha",corn (Zea mays); [7],50%
same,"Corn plant response rating (crop injury, 0 = no effect, 100 = complete kill) at 125 g/ha",corn (Zea mays); [7],50%
same,"Corn plant response rating (crop injury, 0 = no effect, 100 = complete kill) at 31 g/ha",corn (Zea mays); [8],0%
same,"Corn plant response rating (crop injury, 0 = no effect, 100 = complete kill) at 62 g/ha",corn (Zea mays); [8],0%
same,"Corn plant response rating (crop injury, 0 = no effect, 100 = complete kill) at 125 g/ha","corn (Zea mays); pre-emergence, Preemergence, scale 0 to 100, read-out: Plant response rating, Corn",20%
same,"Corn plant response rating (crop injury, 0 = no effect, 100 = complete kill) at 250 g/ha","corn (Zea mays); pre-emergence, Preemergence, 250 g ai/ha, scale 0 to 100",30%
same,pest or weed control at 31 g/ha,"kochia (Kochia scoparia); post-emergence, Postemergence, read-out: Plant response rating (scale of 0 to 100), Kochia",80%
same,pest or weed control at 62 g/ha,kochia (Kochia scoparia); [9],85%
same,pest or weed control at 125 g/ha,kochia (Kochia scoparia); [9],90%
same,pest or weed control at 250 g/ha,"kochia (Kochia scoparia); post-emergence, Postemergence, scale 0 to 100, read-out: Plant response rating, Kochia",90%
same,pest or weed control at 31 g/ha,kochia (Kochia scoparia); [10],20%
same,pest or weed control at 62 g/ha,kochia (Kochia scoparia); [10],20%
same,pest or weed control at 125 g/ha,kochia (Kochia scoparia); [11],25%
same,pest or weed control at 250 g/ha,kochia (Kochia scoparia); [11],70%
same,plant injury at 31 g/ha,"soybean (Glycine max); post-emergence, Postemergence, read-out: Plant response rating (scale of 0 to 100), Soybean",90%
same,plant injury at 62 g/ha,soybean (Glycine max); [12],90%
same,plant injury at 125 g/ha,soybean (Glycine max); [12],100%
same,plant injury at 250 g/ha,"soybean (Glycine max); post-emergence, Postemergence, scale 0 to 100, read-out: Plant response rating, Soybean",100%
same,plant injury at 31 g/ha,soybean (Glycine max); [13],0%
same,plant injury at 62 g/ha,soybean (Glycine max); [13],85%
same,plant injury at 125 g/ha,soybean (Glycine max); [14],85%
same,plant injury at 250 g/ha,soybean (Glycine max); [14],85%
same,pest or weed control at 31 g/ha,"[3]; post-emergence, Postemergence, read-out: Plant response rating (scale of 0 to 100), Cocklebur",90%
same,pest or weed control at 62 g/ha,[3]; [15],90%
same,pest or weed control at 125 g/ha,[3]; [15],100%
same,pest or weed control at 31 g/ha,[3]; [16],0%
same,pest or weed control at 62 g/ha,[3]; [16],0%
same,pest or weed control at 125 g/ha,"[3]; pre-emergence, Preemergence, scale 0 to 100, read-out: Plant response rating, Cocklebur",5%
same,pest or weed control at 250 g/ha,"[3]; pre-emergence, Preemergence, 250 g ai/ha, scale 0 to 100, read-out: Plant response rating, Cocklebur",30%
